Results: patent publication US9604945B2, “Sydnonimines-specific dopamine reuptake inhibitors and their use in treating dopamine related disorders” (priority 2007, dated 2017)
Read-outs that look alike come from different tables or passages of the source.

Tests used:
[1] = target: dopamine transporter (DAT) (Cavia porcellus, UniProt H0WCX4); test: Dopamine transporter binding assay [3H]WIN 35,428; set-up: species or system Guinea Pig; conditions: for inhibition at 10 µM: read-out: INH at 10 μM DAT
Chain of dopamine transporter (DAT) (H0WCX4 1-619): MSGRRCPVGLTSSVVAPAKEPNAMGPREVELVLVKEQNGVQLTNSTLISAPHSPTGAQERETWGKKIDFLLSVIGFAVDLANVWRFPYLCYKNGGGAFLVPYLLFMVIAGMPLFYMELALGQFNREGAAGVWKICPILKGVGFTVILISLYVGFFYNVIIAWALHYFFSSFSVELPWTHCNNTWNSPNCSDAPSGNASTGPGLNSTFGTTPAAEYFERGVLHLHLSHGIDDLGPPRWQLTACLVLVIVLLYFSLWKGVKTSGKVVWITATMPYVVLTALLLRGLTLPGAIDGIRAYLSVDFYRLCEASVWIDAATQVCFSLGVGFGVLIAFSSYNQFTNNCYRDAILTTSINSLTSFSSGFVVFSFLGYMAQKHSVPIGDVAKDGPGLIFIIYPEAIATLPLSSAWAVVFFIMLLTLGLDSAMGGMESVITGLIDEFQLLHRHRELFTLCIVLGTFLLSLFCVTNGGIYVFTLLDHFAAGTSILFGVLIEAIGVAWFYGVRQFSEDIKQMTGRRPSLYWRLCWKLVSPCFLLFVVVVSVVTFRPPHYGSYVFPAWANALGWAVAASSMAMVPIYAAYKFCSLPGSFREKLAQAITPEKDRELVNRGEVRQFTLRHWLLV
Description: DAT inhibition activity was tested according to the procedure described by J. Javitz et al., Mol. Pharmacol., 26: 35-44 (1984). The test results for a number of representative compounds of the invention are reported hereinbelow.
I. Dopamine Transporter Binding Assay [3H]WIN 35,428
• This assay was carried out according to the procedure described by Javitch, J. J. et al., Mol. Pharmacol. 26: 35-44; 1984
A. Tissue Preparation (Prepare all Solutions on Ice) • 1. Thaw frozen brains from male Guinea Pigs (in assay buffer) and place in 50 mM TRIS-HCl (pH 7.4 at 25° C. with 120 mM NaCl). Isolate striatum. • 2. Use a Polytron to homogenize tissue in 20 vols. (w/v) of 50 mM Tris-HCl (pH 7.4 at 25° C. with 120 mM NaCl). • 3. Centrifuge homogenate at 48,400×g for approximately 10 minutes at 4° C. Discard supernatant. • 4. Wash pellet an additional time as described in steps 2 and 3. • 5. Store pellet on ice until needed for binding assay. • 6. Using a Polytron (setting 5; approximately 10 seconds) resuspend pellet in 50 mM Tris-HCl (pH 7.4 at 25° C. with 120 mM NaCl) to an initial concentration of 10 mg/ml (original wet weight), such that the final concentration is 8 mg/ml or 4.0 mg tissue/tube.
B. Binding Reaction • 1. Each tube receives the following components: • 50 ul drug or vehicle • 50 ul [3H]-WIN 35,428 • 400 ul tissue suspension. • 2. Initiate binding reaction with the addition of tissue, and incubate for 120 minutes at 0° C. (on ice). • 3. Terminate binding reaction by rapid filtration of tube contents onto untreated Whatman GF/C filters. • 4. Rinse the assay tubes once with ice cold 50 mM TRIS HCl (pH 7.4 at 25° C. with 120 mM NaCl, BSA), then rapidly rinse the filters with 6×1 mls/tube of the same wash buffer. • 5. Radioactivity trapped onto the filters is assessed using LSM machine. Let sit for 3 hours in scint cocktail.
C. Dopamine Tranasporter Binding Assay
Materials and Reagents • 1. [3H]-WIN 35-428 is diluted to a concentration of 60 nM in 50 mM TRIS HCl (pH 7.4 at 25° C. with 120 mM NaCl). Thus, the final ligand concentration is 6 nM. • 2. Non-specific binding is defined as that remaining in the presence of 1×10^-6 M GBR12909 (room temperature cabinet). GBR12909 MW=523.5 g/mol. Will solubilize in 4% DMSO (sonicate 15 minutes). Aliquots can be used (1E-3). • 3. The reference compound for the assay is GBR12909 and is diluted in 4% DMSO and is then run at the following final concentrations: 1×10^−10, 5×10^−10, 2×10^−9, 5×10^−9, 1×10^−8, 2×10^−8, 5×10^−8, 1×10^−7, 2×10^−7, 5×10^−7, 1×10^−6, 5×10^−6. • 4. The positive control GBR12909 and is run at the final concentrations of: 2×10-8, 1×10^−7, 5×10^−7M. • 5. The Kd for the receptor is 28.0 nM. Buffers

[2] = target: Norepinephrine Transporter (Human Recombinant) (Homo sapiens (Human), UniProt P23975); test: Norepinephrine transporter (human recombinant) binding assay, [3H]-Nisoxetine; conditions: for inhibition at 10 µM: read-out: INH at 10 μM NET
Description: II: Norepinephrine Transporter (Human Recombinant) Binding Assay • This assay was carried out in accordance with the procedure described by Raisman, R, et al. Eur. Jrnl. Pharmacol. 78: 345-351 (1982) with modifications. See also, Langer, S., et al., Eur. Jrnl. Pharmacol, 72: 423-4 (1981). Tissue Preparation • 1. hrNET (Receptor Biology; RBNET) is diluted in assay buffer to 2.5 microunits/ml, so that each tube receives 0.5 microunits, or 2 microunits/ml. • NOTE: 100 microassays, add 20 mis of buffer. Binding Reaction • 1. Each tube receives the following components: • 25 ul drug or vehicle • 25 ul [^3H]-Nisoxetine • 200 ul tissue suspension. • 2. Initiate binding reaction with the addition of tissue, and incubate at room temperature for 1 hour. • 3. Terminate binding reaction by rapid filtration of tube contents onto 0.1% PEI treated GF/C filters (TopCount). • 4. Rinse the assay tubes once with ice cold 50 mM NaCl, then rapidly rinse the filters with 6×1 ml/tube of the same wash buffer. • 5. Radioactivity trapped onto the filters is assessed using liquid scintillation spectrophotometer after soaking the filters for at least 1 hour in scintillation cocktail. Materials and Reagents • 1. The receptor source is human recombinant/CHO. • 2. [^3H]-Nisoxetine, diluted to a concentration of 10 nM in assay buffer, is used as the radioligand. Thus, the final ligand concentration is 1 nM. • 3. Non specific binding is defined as that remaining in the presence of 1×10^−6M desipramine (MW=302.8) (Make fresh: in bag with dessicating rocks 1, dissolves in water 1E-3). • 4. The reference compound for the assay is desipramine. Desimpramine is run at following final concentrations: • 1×10^−10, 2×10^−10, 5×10^−10, 1×10^−9, 2×10^−9, 5×10^−9, 1×10^−8, 2×10^−8, 5×10^−8, 1×10^−7, 2×10^−7, 5×10^−7M • 5. The positive control is any of the above run at the final concentrations of: • 1×10^−9, 5×10^−9, 2×10^−8 M. • 6. The Kd for the receptor is 3 nM. Buffers

[3] = in vivo; cited from earlier work

Compound	Ki [1] [nM]	inhibition at 10 µM [1] [%]	inhibition at 10 µM [2] [%]	Effect on locomotor activity in open field studies [3]	INH at 10 μM DAT ([1]; 10 μM) [%]	Ki ([1]; read-out: Ki DAT) [nM]	INH at 10 μM NET ([2]; 10 μM) [%]
O=C(/N=c1\[cH-][n+](Cc2ccc(F)cc2)no1)Nc1ccccc1 [Example 7, N-phenylcarbamoyl-3-(p-fluoro-benzyl)-sydnonimine]	0.46	99	15				
O=C(/N=c1\[cH-][n+](CCc2ccccc2)no1)Nc1ccc(Cl)c(Cl)c1 [Example 4, N-(3′,4′-dichlorophenyl) carbamoyl-3-phenethyl sydnonimine]	40	99	2				
O=C(/N=c1\[cH-][n+](Cc2ccccc2)no1)Nc1ccccc1 [Example 1, N-phenylcarbamoyl-3-(benzyl)-sydonimine]	36	90	0				
CC(Cc1ccccc1)[n+]1cc([N-]C(=O)Nc2ccccc2)on1 (stereo not shown) [sydnocarb, 3-(1-methyl-2-phenylethyl)-N-(phenylcarbomoyl)sydnone imine]				locomotor stimulating effect			
O=C(/N=c1\[cH-][n+](CCc2ccc([N+](=O)[O-])cc2)no1)Nc1ccc([N+](=O)[O-])c([N+](=O)[O-])c1 [Example 5, N-(3′,4′-dinitrophenyl)carbamoyl-3-p-nitrophenethyl sydnonimine]	100	85	4				
O=C([N-]c1c[n+](Cc2ccc(C(=O)O)cc2)no1)Nc1ccccc1 [Example 2]					92	2.7	11
